From article PMC11423305, “Structure-Based Design of CBP/EP300 Degraders: When Cooperativity Overcomes Affinity” (JACS Au, 2024)

Legend:
[1] = target: CRBN and CBP catalytic core (Homo sapiens, UniProt Q92793+Q96SW2); experiment: FluoPPI cellular ternary complex formation, CBP catalytic core; type: cell-based; details: U2OS cells, 6 h
BRD4 = target: T1, BRD4 (Homo sapiens, UniProt O60885); experiment: Global proteomics / Western blot of BRD4 level; type: cell-based; details: LP1 and MM1S cells, 16 h, 1 μM; verified by Western blot
T1 construct: Western blot masurement of BRD4 levels in LP1 cells treated for 16 h with; endogenous in cells; host or cells: LP1 and MM1S cells
Experimental: cooperativity factor (α) was defined as the ratio of the IC50 values in the absence and […]
For the ternary complex experiments, the final assay composition was: 0.1 % DMSO, 5 nM GST-CBP, 5 nM CRBN-Avi(biotin), 100 mM KF, 0.625 nM XL665-Streptavidin conjugate and 0.8 nM anti-GST mAb – Eu3+-cryptate. The maximal control contained 40 nM dCBP-1, the blank contained no PROTAC. Hook curves were generated by normalization to the maximal control.
LP1 cells were cultured in DMEM (Gibco, 41966-029) supplemented with 15 % FBS (Sigma, F9665); MM1S and LNCaP cells in RPMI 1640 ATCC modification (Gibco, […]
DMEM/F12 (Gibco, 11320074) supplemented with 1 % non-essential amino acids […]
Quantification of CBP/EP300 degradation by Western blotting
LP1 cells plated on 6 well plates were treated with the stated compounds at a final concentration of 0.1 % DMSO for the stated time. […] Protein concentrations were determined using the Pierce ™ BCA Protein Assay Kit (Thermo Scientific, 23227) and equal amounts were separated on 4-12 % ExpressPl us™ PAGE gels (GenScript, M41215). […]
SuperSignal™ West Pico PLUS Chemiluminescent Substrate (Thermo Scientific, 34580) and the Vilber Fusion-FX7 imager. Bands were quantified using ImageJ software and protein levels normalized to protein from DMSO treated cells run on the same membrane. […]

Sequence of CRBN and CBP catalytic core (Q92793 1081-1700): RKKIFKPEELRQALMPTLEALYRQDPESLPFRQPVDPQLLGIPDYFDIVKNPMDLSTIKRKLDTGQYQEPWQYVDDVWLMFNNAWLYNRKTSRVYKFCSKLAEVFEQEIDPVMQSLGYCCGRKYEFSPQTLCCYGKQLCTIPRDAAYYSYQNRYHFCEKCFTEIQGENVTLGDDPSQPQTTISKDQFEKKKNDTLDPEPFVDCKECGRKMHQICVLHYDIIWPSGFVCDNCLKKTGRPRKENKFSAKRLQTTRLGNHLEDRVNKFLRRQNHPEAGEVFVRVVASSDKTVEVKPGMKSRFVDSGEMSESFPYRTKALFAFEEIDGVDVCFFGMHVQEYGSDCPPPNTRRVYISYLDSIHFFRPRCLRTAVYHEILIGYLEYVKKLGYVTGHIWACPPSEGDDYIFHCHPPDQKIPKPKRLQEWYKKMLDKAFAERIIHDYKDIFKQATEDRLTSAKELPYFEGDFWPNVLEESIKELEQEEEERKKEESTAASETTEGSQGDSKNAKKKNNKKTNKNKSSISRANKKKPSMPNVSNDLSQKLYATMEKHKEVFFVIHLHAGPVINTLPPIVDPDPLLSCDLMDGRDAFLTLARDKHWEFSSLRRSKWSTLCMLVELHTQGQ
Sequence of CRBN and CBP catalytic core (Q96SW2 whole entry): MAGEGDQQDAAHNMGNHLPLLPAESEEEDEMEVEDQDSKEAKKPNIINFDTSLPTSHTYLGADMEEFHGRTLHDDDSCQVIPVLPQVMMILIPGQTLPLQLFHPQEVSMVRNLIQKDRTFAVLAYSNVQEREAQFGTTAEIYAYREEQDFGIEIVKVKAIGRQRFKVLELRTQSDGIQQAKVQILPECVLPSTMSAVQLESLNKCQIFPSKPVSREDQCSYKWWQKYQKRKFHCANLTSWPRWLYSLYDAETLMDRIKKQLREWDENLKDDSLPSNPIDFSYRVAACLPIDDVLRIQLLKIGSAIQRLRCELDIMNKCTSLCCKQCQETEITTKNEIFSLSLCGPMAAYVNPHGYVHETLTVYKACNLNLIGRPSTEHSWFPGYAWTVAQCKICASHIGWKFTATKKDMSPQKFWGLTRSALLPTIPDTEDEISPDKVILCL

**Q.** How did the “ternary complex formation in cells with CBP catalytic core” value [1] turn out when Cc1cc2c(NC(=O)c3cc(NC(=O)CCCCCCCCCCNc4cccc5c4C(=O)N(C4CCC(=O)NC4=O)C5=O)cc(-c4ccn(C)n4)c3)cccc2nn1 (centres unmarked) [dCE-2] was run?
**A.** able to induce ternary complex formation

**Q.** What about the “level of BRD4” value (BRD4) of the same compound?
**A.** not changed
